Patent publication US20220056019A1, “FARNESOID X RECEPTOR AGONISTS AND USES THEREOF” (Metacrine, Inc., priority 2018, published 2022)

Molecular target: T1, hFXR (Homo sapiens, UniProt Q96RI1)
T1 construct: expressed in transfected cells; host or cells: CV-1 cells
T1 sequence (Q96RI1 1-486): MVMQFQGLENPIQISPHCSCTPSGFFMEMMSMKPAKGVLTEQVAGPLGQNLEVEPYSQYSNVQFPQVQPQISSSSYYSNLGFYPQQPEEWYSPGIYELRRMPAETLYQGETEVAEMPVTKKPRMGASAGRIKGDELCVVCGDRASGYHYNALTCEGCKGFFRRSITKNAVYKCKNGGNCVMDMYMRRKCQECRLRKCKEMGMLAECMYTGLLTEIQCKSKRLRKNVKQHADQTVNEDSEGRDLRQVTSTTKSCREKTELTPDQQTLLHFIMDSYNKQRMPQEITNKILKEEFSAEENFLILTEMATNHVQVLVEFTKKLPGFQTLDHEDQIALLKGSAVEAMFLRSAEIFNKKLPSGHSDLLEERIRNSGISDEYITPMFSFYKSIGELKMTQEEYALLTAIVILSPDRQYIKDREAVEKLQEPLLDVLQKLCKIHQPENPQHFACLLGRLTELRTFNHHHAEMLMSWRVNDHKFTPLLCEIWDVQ
T1 sequence (P19793 1-462 partner): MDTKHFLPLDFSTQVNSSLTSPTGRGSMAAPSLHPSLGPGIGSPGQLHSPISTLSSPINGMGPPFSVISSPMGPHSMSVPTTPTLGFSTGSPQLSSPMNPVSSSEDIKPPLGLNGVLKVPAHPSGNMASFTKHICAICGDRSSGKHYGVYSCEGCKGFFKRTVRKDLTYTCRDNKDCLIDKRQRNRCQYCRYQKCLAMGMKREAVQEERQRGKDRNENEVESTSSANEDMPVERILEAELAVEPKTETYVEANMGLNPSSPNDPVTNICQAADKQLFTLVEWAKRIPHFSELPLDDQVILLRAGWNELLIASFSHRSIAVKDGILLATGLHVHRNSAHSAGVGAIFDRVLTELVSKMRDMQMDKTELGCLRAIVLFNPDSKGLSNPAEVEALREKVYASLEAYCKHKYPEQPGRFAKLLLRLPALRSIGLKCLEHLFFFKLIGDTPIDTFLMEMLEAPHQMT
Test: In Vitro FXR Assay (TK): TK-ECRE-luc reporter in transfected CV-1 cells
Type: cell-based
Settings: 18 hrs incubation, luminescence
Protocol: Example B-1: In Vitro FXR Assay (TK)
CV-1 cells were seeded at a density of 2,000,000 cells in a T175 flask with DMEM+10% charcoal double-stripped FBS and incubated at 37° C. in 5% CO2 for 18 h (O/N).
After 18 h of incubation, the medium in the T175 flask was changed with fresh DMEM+10% charcoal super-stripped serum. In a polypropylene tube, 2500 μL OptiMEM (Life Technologies, Cat #31985-062) was combined with expression plasmids for hFXR, hRXR, TK-ECRE-luc and pCMX-YFP. The tube was then briefly vortexed and incubated at room temperature for 5 minutes. Transfection reagent (X-tremeGENE HP from Roche, Cat #06 366 236 001) was added to the OptiMEM/plasmid mixture vortexed and incubated at room temperature for 20 minutes. Following incubation, the transfection reagent/DNA mixture complex was added to cells in the T175 flask and the cells were incubated at 37° C. in 5% CO2 for 18 h (O/N).
Compounds were serially diluted in DMSO and added to transfected CV-1 cells. The cells were then incubated for 18 hrs. The next day cells were lysed and examined for luminescence.

EC50, ≤ 50 nM:
COc1ccc([C@H]2CC[C@H](CN(c3cc(-c4coc(C(C)C)n4)ccn3)C(=O)[C@H]3CC[C@H](OC(=O)N4CC(O)C4)CC3)CC2)cc1C [Compound 2.24, trans-4-((4-(2-Isopropyloxazol-4-yl)pyridin-2-yl)(((trans)-4-(4-methoxy-3-methylphenyl)cyclohexyl)methyl)carbamoyl) cyclohexyl 3-hydroxyazetidine-1-carboxylate]
COc1ccc([C@H]2CC[C@H](CN(c3cc(-c4coc(C(C)C)n4)ccn3)C(=O)[C@H]3CC[C@H](OC(=O)N4CCN(C)CC4)CC3)CC2)cc1C [Compound 2.25, trans-4-((4-(2-Isopropyloxazol-4-yl)pyridin-2-yl)(((trans)-4-(4-methoxy-3-methylphenyl)cyclohexyl)methyl)carbamoyl)cyclohexyl 4-methylpiperazine-1-carboxylate]
COc1ccc([C@H]2CC[C@H](CN(c3cc(-c4coc(C(C)C)n4)ccn3)C(=O)[C@H]3CC[C@H](OC(=O)NCC(C)(C)O)CC3)CC2)cc1C [Compound 2.26, trans-4-((4-(2-Isopropyloxazol-4-yl)pyridin-2-yl)(((trans)-4-(4-methoxy-3-methylphenyl)cyclohexyl)methyl)carbamoyl)cyclohexyl (2-hydroxy-2-methylpropyl)carbamate]
COc1ccc([C@H]2CC[C@H](CN(c3cc(-c4cnc(C5CC5)s4)ccn3)C(=O)[C@H]3CC[C@H](OC(=O)N4CCN(C)CC4)CC3)CC2)cc1C [Compound 2.27, trans-4-((4-(2-Cyclopropylthiazol-5-yl)pyridin-2-yl)(((trans)-4-(4-methoxy-3-methylphenyl)cyclohexyl)methyl)carbamoyl)cyclohexyl 4-methylpiperazine-1-carboxylate]
COc1ccc([C@H]2CC[C@H](CN(c3cc(-c4cnn(C(C)C)c4)ccn3)C(=O)[C@H]3CC[C@H](OC(=O)NCC(C)F)CC3)CC2)cc1C (stereo partly drawn) [Compound 2.28, trans-4-((4-(1-Isopropyl-1H-pyrazol-4-yl)pyridin-2-yl)(((trans)-4-(4-methoxy-3-methylphenyl)cyclohexyl)methyl)carbamoyl) cyclohexyl(2-fluoropropyl)carbamate]
COc1ccc([C@H]2CC[C@H](CN(c3cc(-c4cnn(C(C)C)c4)ccn3)C(=O)[C@H]3CC[C@H](OC(=O)NCCCF)CC3)CC2)cc1C [Compound 2.29, trans-4-((4-(1-Isopropyl-1H-pyrazol-4-yl)pyridin-2-yl)(((trans)-4-(4-methoxy-3-methylphenyl)cyclohexyl)methyl)carbamoyl) cyclohexyl(3-fluoropropyl)carbamate]
COc1ccc([C@H]2CC[C@H](CN(c3cc(-c4cnn(C(C)C)c4)ccn3)C(=O)[C@H]3CC[C@H](OC(=O)NC[C@H](F)CO)CC3)CC2)cc1C [Compound 2.30, trans-4-((4-(1-Isopropyl-1H-pyrazol-4-yl)pyridin-2-yl)(((trans)-4-(4-methoxy-3-methylphenyl)cyclohexyl)methyl)carbamoyl) cyclohexyl((S)-2-fluoro-3-hydroxypropyl)carbamate]
COc1ccc([C@H]2CC[C@H](CN(c3cc(-c4cnn(C(C)C)c4)ccn3)C(=O)[C@H]3CC[C@H](OC(=O)NCC(C)(F)F)CC3)CC2)cc1C [Compound 2.31, trans-4-((4-(1-Isopropyl-1H-pyrazol-4-yl)pyridin-2-yl)(((trans)-4-(4-methoxy-3-methylphenyl)cyclohexyl)methyl)carbamoyl) cyclohexyl(2,2-difluoropropyl)carbamate]
COc1ccc([C@H]2CC[C@H](CN(c3cc(-c4cnn(C(C)C)c4)ccn3)C(=O)[C@H]3CC[C@H](OC(=O)NC[C@@H](F)CF)CC3)CC2)cc1C [Compound 2.32, trans-4-((4-(1-Isopropyl-1H-pyrazol-4-yl)pyridin-2-yl)(((trans)-4-(4-methoxy-3-methylphenyl)cyclohexyl)methyl)carbamoyl) cyclohexyl((R)-2,3-difluoropropyl)carbamate]
COc1ccc([C@H]2CC[C@H](CN(c3cc(-c4cnn(C(C)C)c4)ccn3)C(=O)[C@H]3CC[C@H](OC(=O)NC[C@H](F)CF)CC3)CC2)cc1C [Compound 2.33, trans-4-((4-(1-Isopropyl-1H-pyrazol-4-yl)pyridin-2-yl)(((trans)-4-(4-methoxy-3-methylphenyl)cyclohexyl)methyl)carbamoyl) cyclohexyl((S)-2,3-difluoropropyl) carbamate]
COc1ccc([C@H]2CC[C@H](CN(c3cc(-c4cnn(C(C)C)c4)ccn3)C(=O)[C@H]3CC[C@H](OC(=O)NCC(F)(F)CO)CC3)CC2)cc1C [Compound 2.34, trans-4-((4-(1-Isopropyl-1H-pyrazol-4-yl)pyridin-2-yl)(((trans)-4-(4-methoxy-3-methylphenyl)cyclohexyl)methyl)carbamoyl) cyclohexyl(2,2-difluoro-3-hydroxypropyl)carbamate]
COc1ccc([C@H]2CC[C@H](CN(c3cc(-c4cnn(C(C)C)c4)ccn3)C(=O)[C@H]3CC[C@H](OC(=O)NC(CF)CF)CC3)CC2)cc1C [Compound 2.35, trans-4-((4-(1-Isopropyl-1H-pyrazol-4-yl)pyridin-2-yl)(((trans)-4-(4-methoxy-3-methylphenyl)cyclohexyl)methyl)carbamoyl) cyclohexyl(1,3-difluoropropan-2-yl) carbamate]
CCc1nc(-c2ccnc(N(C[C@H]3CC[C@H](c4ccc(OC)c(C)c4)CC3)C(=O)[C@H]3CC[C@H](OC(=O)N4CC(O)C4)CC3)c2)co1 [Compound 2.36, trans-4-((4-(2-Ethyloxazol-4-yl)pyridin-2-yl)((trans-4-(4-methoxy-3-methylphenyl)cyclohexyl)methyl)carbamoyl)cyclohexyl 3-hydroxyazetidine-1-carboxylate]
COc1ccc([C@H]2CC[C@H](CN(c3cc(-c4cnc(C(C)C)o4)ccn3)C(=O)[C@H]3CC[C@H](OC(=O)N4CC(O)C4)CC3)CC2)cc1C [Compound 2.37, trans-4-((4-(2-Isopropyloxazol-5-yl)pyridin-2-yl)((trans-4-(4-methoxy-3-methylphenyl)cyclohexyl)methyl)carbamoyl)cyclohexyl 3-hydroxyazetidine-1-carboxylate]
COc1ccc([C@H]2CC[C@H](CN(c3cc(-c4cc(C5CC5)no4)ccn3)C(=O)[C@H]3CC[C@H](OC(=O)N4CC(O)C4)CC3)CC2)cc1C [Compound 2.38, trans-4-((4-(3-Cyclopropylisoxazol-5-yl)pyridin-2-yl)((trans-4-(4-methoxy-3-methylphenyl)cyclohexyl)methyl)carbamoyl)cyclohexyl 3-hydroxyazetidine-1-carboxylate]
COc1ccc([C@H]2CC[C@H](CN(c3cc(-n4cnc(C5CC5)n4)ccn3)C(=O)[C@H]3CC[C@H](OC(=O)N4CC(O)C4)CC3)CC2)cc1C [Compound 2.39, trans-4-((4-(3-Cyclopropyl-1H-1,2,4-triazol-1-yl)pyridin-2-yl)((trans-4-(4-methoxy-3-methylphenyl)cyclohexyl)methyl)carbamoyl)cyclohexyl 3-hydroxyazetidine-1-carboxylate]
